Test results published in paper PMC3115714 (Bioorganic & medicinal chemistry, 2011).

What was measured:
[1] = target: μ-opioid receptor (CHO hMOR) (Homo sapiens, UniProt P35372); format: binding
[2] = target: δ-opioid receptor (CHO hDOR) (Homo sapiens, UniProt P41143); assay: Opioid receptor binding assay, [3H]DADLE displacement in hDOR-CHO cell membranes; conditions: selectivity μ over δ, from Ki
[3] = target: κ-opioid receptor (CHO hKOR) (Homo sapiens, UniProt P41145); format: binding
[4] = target: μ-opioid receptor (hMOR-CHO) (Homo sapiens, UniProt P35372); assay: biochemical; format: biochemical
μ-opioid receptor (hMOR-CHO), sequence (P35372 whole entry): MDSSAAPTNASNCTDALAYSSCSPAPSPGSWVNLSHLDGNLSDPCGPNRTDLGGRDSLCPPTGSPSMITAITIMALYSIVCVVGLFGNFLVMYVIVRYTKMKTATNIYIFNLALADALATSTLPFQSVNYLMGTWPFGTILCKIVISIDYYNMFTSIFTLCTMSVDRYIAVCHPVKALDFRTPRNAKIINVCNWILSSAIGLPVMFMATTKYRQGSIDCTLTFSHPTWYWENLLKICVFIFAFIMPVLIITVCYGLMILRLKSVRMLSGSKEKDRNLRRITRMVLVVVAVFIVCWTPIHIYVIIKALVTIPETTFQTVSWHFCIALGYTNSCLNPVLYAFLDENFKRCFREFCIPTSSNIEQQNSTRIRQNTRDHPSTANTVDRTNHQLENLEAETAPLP

[5] = target: κ-opioid receptor (hKOR-CHO) (Homo sapiens, UniProt P41145); assay: biochemical; format: biochemical
κ-opioid receptor (hKOR-CHO), sequence (P41145 whole entry): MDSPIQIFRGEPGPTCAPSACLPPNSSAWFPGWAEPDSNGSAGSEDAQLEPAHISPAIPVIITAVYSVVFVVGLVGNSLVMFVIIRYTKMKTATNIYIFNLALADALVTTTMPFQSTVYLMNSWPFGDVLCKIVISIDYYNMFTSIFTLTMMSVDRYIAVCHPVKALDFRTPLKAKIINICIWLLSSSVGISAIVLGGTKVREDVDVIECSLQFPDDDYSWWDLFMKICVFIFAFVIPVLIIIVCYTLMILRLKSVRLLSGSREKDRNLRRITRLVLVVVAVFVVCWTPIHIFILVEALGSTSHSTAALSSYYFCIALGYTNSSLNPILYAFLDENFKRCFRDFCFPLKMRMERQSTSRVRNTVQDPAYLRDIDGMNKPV

δ-opioid receptor (CHO hDOR), sequence (P41143 whole entry): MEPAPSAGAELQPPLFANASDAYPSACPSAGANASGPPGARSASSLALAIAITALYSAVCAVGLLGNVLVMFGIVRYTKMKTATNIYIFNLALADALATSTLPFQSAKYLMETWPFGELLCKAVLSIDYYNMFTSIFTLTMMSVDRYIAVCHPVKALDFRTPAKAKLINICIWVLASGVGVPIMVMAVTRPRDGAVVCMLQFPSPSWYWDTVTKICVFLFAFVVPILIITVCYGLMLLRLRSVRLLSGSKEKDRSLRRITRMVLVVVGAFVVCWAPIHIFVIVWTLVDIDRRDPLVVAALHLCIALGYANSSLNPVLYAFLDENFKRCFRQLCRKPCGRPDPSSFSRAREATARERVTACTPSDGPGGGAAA
μ-opioid receptor (CHO hMOR), sequence (P35372 whole entry): as the sequence (P35372 whole entry) above
κ-opioid receptor (CHO hKOR), sequence (P41145 whole entry): as the sequence (P41145 whole entry) above

With `Oc1cccc2c1O[C@@H]1CN(CCc3ccccc3)[C@@H]3CCC[C@]21C3` (relative stereo) [Cmpd 12, (3R*,6aS*,11aS*)-2-Phenethyl-2,3,4,5,6,11a-hexahydro-1H -3,6a-methanobenzofuro[2,3-c]azocin-10-ol] the “μ affinity relative to morphine” value [1] was “two to three times the affinity of morphine”, the “fold less affinity for δ-receptors than for the μ-receptor” value [2] was “about 1200 fold” and the “fold less affinity for κ-receptors than for the μ-receptor” value [3] was “about 50 fold”. For the same molecule, the Kb [4] was 0.71 ± 0.09 nM, the “potency as μ-opioid antagonist relative to naloxone” value [4] was “more than three times as potent as naloxone” and the Kb [5] was 1.79 ± 0.51 nM. For the same molecule, the “κ-opioid antagonist potency relative to norBNI” value [5] was “one tenth the potency of norBNI”.
